Key:
ΔF508-CFTR [1] = target: T1, ΔF508-CFTR (Homo sapiens, UniProt P13569, DEL508-508); test: CFTR cell surface levels using HRP-tagged ΔF508-CFTR expressing CFBE cells, in the presence of a co-corrector; assay type: cell-based; conditions: HRP-tagged ΔF508-CFTR expressing CFBE cells, in the presence of 3 μM co-corrector; for EC50: read-out: EC50
T1 construct: host or cells: CFBE41o-, doxycycline-inducible
In short: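 Cells were seeded with 0.5 μg/mL doxycycline and held 68 h at 37 °C. Test compounds plus 3 μM co-corrector (final 0.1% DMSO) were then added for 20 h at 33 °C. Washed cells received HRP substrate, and luminescence was normalized between DMSO and 3 μM co-corrector controls.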

ΔF508-CFTR [2] = target: T1, ΔF508-CFTR; test: CFTR cell surface levels using HRP-tagged ΔF508-CFTR expressing CFBE cells, intrinsic corrector capacity; assay type: cell-based; conditions: HRP-tagged ΔF508-CFTR CFBE41o- cells, compounds alone (intrinsic corrector capacity), 20 hours at 33° C.; for % Activation: positive control 3 μM corrector; for EC50: read-out: EC50
In short: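 Here the cells express ΔF508-CFTR with horseradish peroxidase inserted in extracellular loop 4, so only rescued channel at the surface gives luminescent signal. Compounds act on their own, 20 h at the reduced temperature of 33 °C; values are percent activity relative to DMSO and a 3 μM corrector.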

T1 sequence (P13569 with tags, fused parts or gaps DEL508-508): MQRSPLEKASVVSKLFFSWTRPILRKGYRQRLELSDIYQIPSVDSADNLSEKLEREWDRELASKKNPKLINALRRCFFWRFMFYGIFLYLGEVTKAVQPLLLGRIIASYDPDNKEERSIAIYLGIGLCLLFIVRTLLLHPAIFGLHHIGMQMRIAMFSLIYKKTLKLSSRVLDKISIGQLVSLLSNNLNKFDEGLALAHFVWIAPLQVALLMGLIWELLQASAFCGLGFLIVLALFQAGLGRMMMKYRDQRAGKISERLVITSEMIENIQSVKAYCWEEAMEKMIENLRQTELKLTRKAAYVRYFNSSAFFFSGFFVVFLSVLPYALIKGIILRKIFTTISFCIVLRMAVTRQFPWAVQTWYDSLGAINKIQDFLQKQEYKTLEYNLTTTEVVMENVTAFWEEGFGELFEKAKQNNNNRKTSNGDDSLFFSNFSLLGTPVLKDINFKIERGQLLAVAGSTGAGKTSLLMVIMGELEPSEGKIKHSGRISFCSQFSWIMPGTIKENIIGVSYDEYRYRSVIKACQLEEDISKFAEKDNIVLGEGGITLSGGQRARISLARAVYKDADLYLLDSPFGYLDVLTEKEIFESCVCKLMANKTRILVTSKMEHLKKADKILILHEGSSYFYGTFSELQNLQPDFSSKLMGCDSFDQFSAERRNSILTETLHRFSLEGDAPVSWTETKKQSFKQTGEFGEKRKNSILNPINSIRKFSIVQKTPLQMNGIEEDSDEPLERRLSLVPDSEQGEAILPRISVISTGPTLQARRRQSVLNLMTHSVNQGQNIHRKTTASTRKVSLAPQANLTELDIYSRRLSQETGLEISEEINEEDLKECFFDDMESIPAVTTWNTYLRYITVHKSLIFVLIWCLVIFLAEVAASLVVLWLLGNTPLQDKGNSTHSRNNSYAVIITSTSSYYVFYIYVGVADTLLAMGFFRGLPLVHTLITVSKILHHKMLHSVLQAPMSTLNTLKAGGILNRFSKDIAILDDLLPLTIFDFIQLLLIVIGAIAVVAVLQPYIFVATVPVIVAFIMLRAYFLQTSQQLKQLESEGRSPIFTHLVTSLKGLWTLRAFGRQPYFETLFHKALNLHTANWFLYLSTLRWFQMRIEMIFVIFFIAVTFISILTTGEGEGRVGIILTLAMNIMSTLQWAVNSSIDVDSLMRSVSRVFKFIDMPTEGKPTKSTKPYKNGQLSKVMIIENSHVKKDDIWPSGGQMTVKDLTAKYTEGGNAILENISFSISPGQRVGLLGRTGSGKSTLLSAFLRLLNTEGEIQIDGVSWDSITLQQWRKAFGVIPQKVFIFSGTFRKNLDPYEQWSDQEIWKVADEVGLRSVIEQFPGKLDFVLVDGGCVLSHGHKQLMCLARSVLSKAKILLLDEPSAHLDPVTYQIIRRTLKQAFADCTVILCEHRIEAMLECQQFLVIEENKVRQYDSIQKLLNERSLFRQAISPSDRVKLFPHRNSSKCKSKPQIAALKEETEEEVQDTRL

Row | SMILES | % Activation (ΔF508-CFTR [1]) | EC50 (ΔF508-CFTR [1]) | % Activation (ΔF508-CFTR [2]) | EC50 (ΔF508-CFTR [2])
1 | CC(C)c1nn(C2CCCCC2)c2nc(C(=O)O)cc(-c3ccn(C)c3)c12 [compound 351, 1-cyclohexyl-4-(1-methyl-1H-pyrrol-3-yl)-3-(propan-2-yl)-1H-pyrazolo[3,4-b]pyridine-6-carboxylic acid] | 256.6% | 1520 nM | 84.055% | 1610 nM
2 | Cc1nn(C)cc1-c1cc(C(=O)O)nc2c1c(C(C)C)nn2C1CCCCC1 [compound 352, 1-cyclohexyl-4-(1,3-dimethyl-1H-pyrazol-4-yl)-3-(propan-2-yl)-1H-pyrazolo[3,4-b]pyridine-6-carboxylic acid] | 210.15% | 1430 nM | 55.175% | 1510 nM
3 | O=C(O)c1cc(-c2ccc(N3CCOCC3)cc2)c2c(C3CCC3)nn(-c3cc(F)cc(F)c3)c2n1 [compound 353, 3-cyclobutyl-1-(3,5-difluorophenyl)-4-[4-(morpholin-4-yl)phenyl]-1H-pyrazolo[3,4-b]pyridine-6-carboxylic acid] | 438.65% | 459 nM | 224.1% | 506 nM
4 | O=C(O)c1cc(-c2ccc(N3CCOCC3)cc2)c2c(C3CCC3)nn(-c3cccc(C(F)(F)F)c3)c2n1 [compound 354, 3-cyclobutyl-4-[4-(morpholin-4-yl)phenyl]-1-[3-(trifluoromethyl)phenyl]-1H-pyrazolo[3,4-b]pyridine-6-carboxylic acid] | 429.9% | 323 nM | 212.07% | 450 nM
5 | Cc1ccc(-n2nc(C3CCC3)c3c(-c4ccc(N5CCOCC5)cc4)cc(C(=O)O)nc32)cc1F [compound 355, 3-cyclobutyl-1-(3-fluoro-4-methylphenyl)-4-[4-(morpholin-4-yl)phenyl]-1H-pyrazolo[3,4-b]pyridine-6-carboxylic acid] | 360.63% | 556 nM | 180.03% | 740 nM
6 | O=C(O)c1cc(-c2ccc(N3CCOCC3)cc2)c2c(C3CCC3)nn(-c3ccc(C(F)(F)F)cc3)c2n1 [compound 356, 3-cyclobutyl-4-[4-(morpholin-4-yl)phenyl]-1-[4-(trifluoromethyl)phenyl]-1H-pyrazolo[3,4-b]pyridine-6-carboxylic acid] | 331.9% | 428 nM | 152.8% | 489 nM
7 | CN(C)c1ccc(-n2nc(C3CCC3)c3c(-c4ccc(N5CCOCC5)cc4)cc(C(=O)O)nc32)cc1 [compound 357, 3-cyclobutyl-1-[4-(dimethylamino)phenyl]-4-[4-(morpholin-4-yl)phenyl]-1H-pyrazolo[3,4-b]pyridine-6-carboxylic acid] | 274.8% | 806 nM | 113.47% | 885 nM
8 | COC1CCN(c2cc(C(=O)O)nc3c2c(C2CCC2)nn3-c2ccccc2)CC1 [compound 358, 3-cyclobutyl-4-(4-methoxypiperidin-1-yl)-1-phenyl-1H-pyrazolo[3,4-b]pyridine-6-carboxylic acid] | 370.47% | 206 nM | 205.07% | 410 nM
9 | Cc1cccc(-n2nc(C(C)C)c3c(N4CCC5(CC4)CN(C)C(=O)O5)cc(C(=O)O)nc32)c1 [compound 359, 4-(3-methyl-2-oxo-1-oxa-3,8-diazaspiro[4.5]decan-8-yl)-1-(3-methylphenyl)-3-(propan-2-yl)-1H-pyrazolo[3,4-b]pyridine-6-carboxylic acid] | 349.55% | 2180 nM | 142% | 2040 nM
10 | Cc1cccc(-n2nc(C(C)C)c3c(N4CCC5(CCCCC5)CC4)cc(C(=O)O)nc32)c1 [compound 360, 4-(3-azaspiro[5.5]undecan-3-yl)-1-(3-methylphenyl)-3-(propan-2-yl)-1H-pyrazolo[3,4-b]pyridine-6-carboxylic acid] | 293% | 1030 nM | 96.335% | 1170 nM
11 | CC(C)c1nn(C2CCCCC2)c2nc(C(=O)O)cc(-c3cnn(C(C)C)c3)c12 [compound 361, 1-cyclohexyl-3-(propan-2-yl)-4-[1-(propan-2-yl)-1H-pyrazol-4-yl]-1H-pyrazolo[3,4-b]pyridine-6-carboxylic acid] | 227.65% | 1160 nM | 80.015% | 1540 nM
12 | CC(C)c1nn(C2CCCCC2)c2nc(C(=O)O)cc(-c3cccn3C)c12 [compound 362, 1-cyclohexyl-4-(1-methyl-1H-pyrrol-2-yl)-3-(propan-2-yl)-1H-pyrazolo[3,4-b]pyridine-6-carboxylic acid] | 170.85% | 1800 nM | 44.405% | 2030 nM
13 | CC(C)c1nn(C2CCCCC2)c2nc(C(=O)O)cc(-c3cn[nH]c3)c12 [compound 363, 1-cyclohexyl-3-(propan-2-yl)-4-(1H-pyrazol-4-yl)-1H-pyrazolo[3,4-b]pyridine-6-carboxylic acid] | 187.2% | 2330 nM | 56.625% | 2470 nM
14 | CC(C)c1nn(C2CCCCC2)c2nc(C(=O)O)cc(-c3ccc4c(c3)CNC4=O)c12 [compound 364, 1-cyclohexyl-4-(1-oxo-2,3-dihydro-1H-isoindol-5-yl)-3-(propan-2-yl)-1H-pyrazolo[3,4-b]pyridine-6-carboxylic acid] | 282.3% | 1640 nM | 118.28% | 2280 nM
15 | CC(C)c1nn(C2CCCOC2)c2nc(C(=O)O)cc(-c3ccc(N4CCC(C#N)CC4)nc3)c12 (centres unmarked) [compound 365, 4-[6-(4-cyanopiperidin-1-yl)pyridin-3-yl]-1-(oxan-3-yl)-3-(propan-2-yl)-1H-pyrazolo[3,4-b]pyridine-6-carboxylic acid] | 278.05% | 1540 nM | 147.55% | 2550 nM
16 | CC(C)c1nn(C2CCCCC2)c2nc(C(=O)O)cc(-c3cnc(N4CCCC(C#N)C4)nc3)c12 (centres unmarked) [compound 366, 4-[2-(3-cyanopiperidin-1-yl)pyrimidin-5-yl]-1-cyclohexyl-3-(propan-2-yl)-1H-pyrazolo[3,4-b]pyridine-6-carboxylic acid] | 385.85% | 602 nM | 199.1% | 436 nM
17 | O=C(O)c1cc(N2CCC(OCC(=O)N3CCCC3)CC2)c2c(C3CCC3)nn(-c3ccccc3)c2n1 [compound 367, 3-cyclobutyl-4-{4-[2-oxo-2-(pyrrolidin-1-yl)ethoxy]piperidin-1-yl}-1-phenyl-1H-pyrazolo[3,4-b]pyridine-6-carboxylic acid] | 406.35% | 669 nM | 239.55% | 1010 nM
18 | COCC1CCN(c2cc(C(=O)O)nc3c2c(C(C)C)nn3-c2cccc(N(C)C)c2)CC1 [compound 368, 1-[3-(dimethylamino)phenyl]-4-[4-(methoxymethyl)piperidin-1-yl]-3-(propan-2-yl)-1H-pyrazolo[3,4-b]pyridine-6-carboxylic acid] | 515.5% | 290 nM | 357.3% | 521 nM
19 | CC(C)c1nn(-c2ccnc(N3CCCC3)c2)c2nc(C(=O)O)cc(-c3ccc(N4CCC(C#N)CC4)nc3)c12 [compound 369, 4-[6-(4-cyanopiperidin-1-yl)pyridin-3-yl]-3-(propan-2-yl)-1-[2-(pyrrolidin-1-yl)pyridin-4-yl]-1H-pyrazolo[3,4-b]pyridine-6-carboxylic acid] | 389.2% | 471 nM | 251.6% | 843 nM
20 | CC(C)c1nn(C2CCCCC2)c2nc(C(=O)O)cc(-c3ccnn3C)c12 [compound 370, 1-cyclohexyl-4-(1-methyl-1H-pyrazol-5-yl)-3-(propan-2-yl)-1H-pyrazolo[3,4-b]pyridine-6-carboxylic acid] | 133% | > 10000 nM | 19.18% | > 10000 nM
21 | CC(C)c1nn(C2CCCCC2)c2nc(C(=O)O)cc(C3=CCN(C(=O)OC(C)(C)C)CC3)c12 [compound 371, 4-[1-(tert-butoxycarbonyl)-1,2,3,6-tetrahydropyridin-4-yl]-1-cyclohexyl-3-(propan-2-yl)-1H-pyrazolo[3,4-b]pyridine-6-carboxylic acid] | 283.6% | 1100 nM | 116.35% | 1310 nM
22 | CC(C)OC1CCN(c2cc(C(=O)O)nc3c2c(C2CCC2)nn3-c2ccccc2)CC1 [compound 372, 3-cyclobutyl-1-phenyl-4-{4-[(propan-2-yl)oxy]piperidin-1-yl}-1H-pyrazolo[3,4-b]pyridine-6-carboxylic acid] | 388.6% | 126 nM | 179% | 262 nM
23 | COCC1CCCN(c2cc(C(=O)O)nc3c2c(C2CCC2)nn3-c2ccccc2)C1 (centres unmarked) [compound 373, 3-cyclobutyl-4-[3-(methoxymethyl)piperidin-1-yl]-1-phenyl-1H-pyrazolo[3,4-b]pyridine-6-carboxylic acid] | 306.9% | 304 nM | 126.3% | 469 nM

From patent US9796711B2, “Substituted pyrazolo[3,4-b]pyridin-6-carboxylic acids and method of use” (AbbVie S.àr.l., priority 2015, dated 2017)
